Measured values published in patent US9532994B2, “Agents and methods for enhancing bone formation by oxysterols in combination with bone morphogenic proteins” (THE REGENTS OF THE UNIVERSITY OF CALIFORNIA, priority 2003, dated 2017).

Experiments:
[1] = system: M2-10B4 mouse marrow stromal cell line; assay: Matrix mineralization in M2 cells (von Kossa staining, 45Ca incorporation assay); type: cell-based; details: 0.5-10 μM, as many as 14 days, data not shown
Experimental: Cells: M2-10B4 mouse marrow stromal cell line obtained from American Type Culture Collection (ATCC, Rockville, Md., U.S.A.) was derived from bone marrow stromal cells of a (C57BL/6J×C3H/HeJ) F1 mouse, and support human and murine myelopoiesis in long-term cultures (as per ATCC) and have the ability to differentiate into osteoblastic and adipocytic cells. Unless specified, these cells were cultured in RPMI 1640 containing 10% heat-inactivated FBS, and supplemented with 1 mM sodium pyruvate, 100 U/ml penicillin, and 100 […] (all from Irvine Scientific).
Von Kossa and oil red O staining—Matrix mineralization in cell monolayers was detected by silver nitrate staining as previously described. Oil red O staining for detection of adipocytes was performed as previously described.
^45Ca incorporation assay—Matrix mineralization in cell monolayers was quantified using the ^45Ca incorporation assay as previously described.
M2 cells at confluence were treated in osteogenic medium with control vehicle or 5 μM oxysterols, alone or in combination as indicated. After 14 days, mineralization was identified by a von Kossa staining, which appears black. FIG. 3C is a depiction of von Kossa staining of M2 cells exposed to various conditions.
M2 cells were treated with control vehicle (C) or a combination of 22R and 20S oxysterols at increasing concentrations. After 14 days, matrix mineralization in cultures was quantified using a ^45Ca incorporation assay. […] FIG. 3D is a bar graph depicting the effect of a combination of oxysterols at various doses on calcium incorporation in M2 cells.
(§1) Next, a combination of 22R and 20S oxysterols (RS, 2.5 μM each) were added in the presence or absence of SC as indicated. After 3 days, ALP activity was measured as described earlier. […] (B) M2 cells were treated as described in (A) and after 10 days matrix mineralization in cultures was quantified by a ^45Ca incorporation assay as described earlier. Results from a representative of three experiments are shown, reported as the mean±SD of quadruplicate determinations, normalized to protein concentration. (C) M2 cells were pretreated with 20 μM SC for 4 hours, followed by the addition of RS in the presence or absence of SC as described above. After 8 days, total RNA was isolated and analyzed for osteocalcin (Osc) and 18S rRNA expression by Northern blotting as previously described. Data from densitometric analysis of the Northern blot is shown in (D) as the average of duplicate samples, normalized to 18S rRNA. (E) M2 cells at confluence were pretreated for 2 hours with control vehicle (C), or PLA2 inhibitors ACA (25 μM) and MCOCF3 (MC, 20 μM), in osteogenic medium. Next, a combination of 22R and 20S oxysterols (RS, 2.5 μM) was added in the presence or absence of the inhibitors as indicated. After 3 days, ALP activity was measured as previously described. Data from a representative of three experiments are shown, reported as the mean±SD of quadruplicate determinations, normalized to protein concentration (p<0.01 for RS vs. RS+ACA and RS+MC). (F) M2 cells were treated as described in (E). After 10 days, matrix mineralization in cultures was quantified using a ^45Ca incorporation assay as previously described. Results from a representative of three experiments are shown, reported as the mean of quadruplicate determinations±SD, normalized to protein concentration (p<0.01 for RS vs. RS+ACA and RS+MC).
(A) M2 cells at confluence were pretreated for four hours with RPMI containing 1% FBS, followed by treatment with control vehicle or 5 μM 20S oxysterol for 1, 4, or 8 hours. Next total cell extracts were prepared and analyzed for levels of native or phosphorylated ERK (pERK) using specific antibodies as previously described.

[2] = system: osteocalcin mRNA in M2 cells; assay: Northern blotting for osteocalcin mRNA in M2 cells; type: cell-based, mouse; details: 0.5-10 μM, as many as 14 days, data not shown
Experimental: The extent of gene induction was determined by densitometry.
After 4 and 8 days, total RNA from duplicate samples was isolated and analyzed for osteocalcin (Osc) and 28S rRNA expression by Northern blotting as described. FIG. 3E is a radiogram of Northern blotting for osteocalcin mRNA in M2 cells exposed to a control or combination of oxysterols for 4 or 8 days. FIG. 3F is a bar graph depicting the relative demsometric units of osteocalcin mRNA in M2 cells exposed to a control or combination of oxysterols for 4 or 8 days. Data from densitometric analysis of the Northern blot is shown in (F) as the average of duplicate samples, normalized to 28S rRNA.
as §1, with “(E).” for “(E). After 10 days, matrix mineralization in cultures was quantified using a ^45Ca incorporation assay as previously described. Results from a representative of three experiments are shown, reported as the mean of quadruplicate determinations±SD, normalized to protein concentration (p<0.01 for RS vs. RS+ACA and RS+MC).”

Compound | induction of mineralization, individual oxysterols [1] | induction of osteocalcin gene expression, individual oxysterols [2]
CC(C)CC[C@@H](O)[C@@H](C)[C@H]1CC[C@H]2[C@@H]3CC=C4C[C@@H](O)CC[C@]4(C)[C@H]3CC[C@]12C [22R, 22(R)-hydroxycholesterol] | unable to induce | unable to induce
CC(C)CC[C@H](O)[C@@H](C)[C@H]1CC[C@H]2[C@@H]3CC=C4C[C@@H](O)CC[C@]4(C)[C@H]3CC[C@]12C [22S, 22(S)-hydroxycholesterol] | unable to induce | unable to induce
CC(C)CCC[C@](C)(O)[C@H]1CC[C@H]2[C@@H]3CC=C4C[C@@H](O)CC[C@]4(C)[C@H]3CC[C@@]21C [20S, 20(S)-hydroxycholesterol] | unable to induce | unable to induce
